Experimental findings from patent US12378248B2 (The United States of America, as represented by the …, priority 2018, dated 2025) are described below.

Residue numbers refer to the chain shown, from its start.

The target of one data set is T1, hA3AR (Homo sapiens, UniProt P0DMS8).
T1 construct: expressed in transfected cells; host or cells: CHO
T1 sequence (P0DMS8 1-318): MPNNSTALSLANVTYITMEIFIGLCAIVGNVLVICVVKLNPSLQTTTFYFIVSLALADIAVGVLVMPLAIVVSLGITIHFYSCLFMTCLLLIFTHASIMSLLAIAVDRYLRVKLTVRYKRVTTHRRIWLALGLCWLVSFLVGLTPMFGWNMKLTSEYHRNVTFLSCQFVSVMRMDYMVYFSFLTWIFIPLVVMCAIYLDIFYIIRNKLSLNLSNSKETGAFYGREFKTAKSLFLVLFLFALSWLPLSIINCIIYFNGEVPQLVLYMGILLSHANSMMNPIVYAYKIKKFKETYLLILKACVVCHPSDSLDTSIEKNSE
The data set can be described thus: Radioligand binding in membranes of CHO cells expressing hA3AR. Conditions: read-out: A3AR % inhibition or Ki; for Ki: (h).

Data set [1] addresses T2, mA3AR (Mus musculus, UniProt Q61618).
T2 sequence (Q61618 1-319): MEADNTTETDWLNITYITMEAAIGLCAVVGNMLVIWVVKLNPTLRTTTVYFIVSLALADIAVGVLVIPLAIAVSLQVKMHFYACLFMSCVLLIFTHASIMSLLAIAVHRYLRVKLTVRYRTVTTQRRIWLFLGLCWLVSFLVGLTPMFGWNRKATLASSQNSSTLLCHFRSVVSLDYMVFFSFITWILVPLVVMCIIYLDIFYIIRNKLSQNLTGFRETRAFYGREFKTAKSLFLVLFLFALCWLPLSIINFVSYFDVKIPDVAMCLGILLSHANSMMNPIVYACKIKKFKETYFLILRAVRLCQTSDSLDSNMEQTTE
Kind of data set: Guanine nucleotide ([35S]GTPγS) binding assay. The format is biochemical. Conditions: effect of 10 μM test compound as % of 10 μM 16. As to the method: cLogP was calculated using ChemDraw Professional, v. 16.0. Binding selectivity for mA1Ar is expressed in terms of fold, compared to mA3AR (Data from Table 1).

The test system of data set [2] is wild-type C57BL/6J mice. The data set can be described thus: Hypothermia (Tb by telemetry) after ip dosing. The format is in vivo, mouse. As to conditions: for Tb (° C.): average from dosing to 60 min, mean±SD. The procedure: (§1) Compounds were dosed ip. Tb and activity were measured by telemetry and the averages from dosing to 60 min were calculated. […] Data are for the highest dose used and are mean±SD from 3 to 22 mice/group (usually 5-7). P values are unpaired t-Test vs vehicle-treated controls assayed simultaneously. Vehicle data are mean±SD from all (n=83) vehicle treated mice.

Data set [3] deals with wild-type C57BL/6J mice. Kind of data set: Locomotor activity by telemetry after ip dosing. The format is in vivo, mouse. Conditions: average from dosing to 60 min, mean±SD. The procedure: as §1
A short description of data set [4]: Plasma protein binding at 10 μM. The format is in vitro ADME, human. Conditions: unbound percent ± standard deviation. As to the method:
(§2) Plasma protein binding in human plasma, mouse plasma, and rat plasma was determined. Verapamil and warfarin served as positive controls. The results are expressed as unbound percent±standard deviation.

Data set [5] in a line: Plasma protein binding at 10 μM. The format is in vitro ADME, mouse. As to conditions: unbound percent ± standard deviation. As to the method:
as §2

Data set [6] can be described thus: Plasma protein binding at 10 μM. The format is in vitro ADME, rat. As to conditions: unbound percent ± standard deviation. The procedure:
as §2

A further data set concerns the target T3, hA1AR (Homo sapiens, UniProt P30542).
T3 construct: expressed in transfected cells; host or cells: CHO
T3 sequence (P30542 1-326): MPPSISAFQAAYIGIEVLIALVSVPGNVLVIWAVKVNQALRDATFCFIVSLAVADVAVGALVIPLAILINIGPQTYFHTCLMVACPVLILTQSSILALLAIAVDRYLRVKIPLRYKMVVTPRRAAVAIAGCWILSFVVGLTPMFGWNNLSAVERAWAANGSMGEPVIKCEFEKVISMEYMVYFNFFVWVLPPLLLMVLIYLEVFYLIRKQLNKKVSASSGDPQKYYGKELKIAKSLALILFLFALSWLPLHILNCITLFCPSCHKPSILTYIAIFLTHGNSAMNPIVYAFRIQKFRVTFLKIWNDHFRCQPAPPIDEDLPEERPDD
The data set can be described thus: Radioligand binding in membranes of CHO cells expressing hA1AR, [3H]N6-R-phenylisopropyladenosine. Conditions: read-out: A1AR % inhibition or Ki; for Ki: (h).

The next data set has as its target T4, rA1AR (Rattus norvegicus, UniProt P25099).
T4 sequence (P25099 1-326): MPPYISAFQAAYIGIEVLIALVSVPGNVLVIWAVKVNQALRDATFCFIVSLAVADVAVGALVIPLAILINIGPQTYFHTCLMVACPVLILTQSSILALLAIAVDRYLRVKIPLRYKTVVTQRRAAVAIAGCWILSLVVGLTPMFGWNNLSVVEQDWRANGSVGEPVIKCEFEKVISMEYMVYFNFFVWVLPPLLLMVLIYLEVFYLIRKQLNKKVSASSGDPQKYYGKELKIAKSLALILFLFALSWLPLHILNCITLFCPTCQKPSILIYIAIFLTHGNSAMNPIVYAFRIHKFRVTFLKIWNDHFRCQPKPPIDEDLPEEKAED
Kind of data set: Adenosine receptor binding, rA1AR. Conditions: (r), read-out: A1AR % inhibition or Ki (converted).

Another data set concerns the target T5, hA2AAR (Homo sapiens, UniProt P29274).
T5 construct: expressed in transfected cells; host or cells: HEK293
Kind of data set: Radioligand binding in membranes of HEK293 cells expressing hA2AAR. Conditions: read-out: A2AAR % inhibition; for Ki: (h), values without % sign (Ki).

Data set [7] relates to off-target receptors (PDSP). Kind of data set: Off-target interactions determined by the PDSP, whole screen. The format is binding, human. Conditions: no off-target interaction listed.
A further data set concerns the target T6, mA1AR (Mus musculus, UniProt Q60612).
T6 sequence (Q60612 1-326): T4 sequence (P25099 1-326) with V151E, D155A, R157I, D316E, L319I, E325D
The data set can be described thus: Adenosine receptor binding, mA1AR. As to conditions: for Ki: (m), read-out: A1AR % inhibition or Ki (converted).

The target of the next data set is mA2AAR (Mus musculus, UniProt Q60613). The data set can be described thus: Adenosine receptor binding, mA2AAR. Conditions: read-out: A2AAR % inhibition (converted).
Chain of mA2AAR (Q60613 whole entry): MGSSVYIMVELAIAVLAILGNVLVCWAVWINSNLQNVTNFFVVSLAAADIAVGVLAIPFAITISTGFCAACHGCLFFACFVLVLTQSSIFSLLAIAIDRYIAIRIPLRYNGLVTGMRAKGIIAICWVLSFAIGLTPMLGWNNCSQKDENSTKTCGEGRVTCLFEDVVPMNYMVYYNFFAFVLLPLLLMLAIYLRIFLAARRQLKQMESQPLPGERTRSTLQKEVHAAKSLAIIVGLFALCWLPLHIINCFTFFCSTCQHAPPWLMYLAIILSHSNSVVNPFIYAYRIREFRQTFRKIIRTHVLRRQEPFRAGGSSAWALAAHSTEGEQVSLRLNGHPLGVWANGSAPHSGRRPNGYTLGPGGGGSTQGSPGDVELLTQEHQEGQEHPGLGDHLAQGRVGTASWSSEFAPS
For data set [8], the target named is T2, mA3AR. Kind of data set: Adenosine receptor binding, mA3AR. As to conditions: for Ki: (m), read-out: A3AR % inhibition or Ki (converted).
A further data set has as its target sigma receptor σ2 (UniProt Q5BJF2). Kind of data set: Off-target interaction determined by the PDSP. The format is binding, human. Conditions: read-out: Off-target, receptor (h, unless noted) (Ki, μM): σ2.
The next data set concerns the target T7, serotonin receptor 5HT2C (Homo sapiens, UniProt P28335).
T7 sequence (P28335 33-458): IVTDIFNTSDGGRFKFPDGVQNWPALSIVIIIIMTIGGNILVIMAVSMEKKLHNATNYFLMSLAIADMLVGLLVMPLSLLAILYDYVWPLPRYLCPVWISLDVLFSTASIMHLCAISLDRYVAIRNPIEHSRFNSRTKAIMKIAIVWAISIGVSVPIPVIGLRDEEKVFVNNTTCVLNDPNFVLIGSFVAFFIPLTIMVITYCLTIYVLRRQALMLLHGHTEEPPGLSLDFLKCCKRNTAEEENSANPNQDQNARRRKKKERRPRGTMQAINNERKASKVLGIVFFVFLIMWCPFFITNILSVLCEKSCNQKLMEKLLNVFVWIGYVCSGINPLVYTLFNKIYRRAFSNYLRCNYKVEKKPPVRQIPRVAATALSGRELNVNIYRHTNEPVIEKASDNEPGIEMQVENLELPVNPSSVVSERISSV
The data set can be described thus: Off-target interaction determined by the PDSP. The format is binding. As to conditions: read-out: Off-target, receptor (h, unless noted) (Ki, μM): 5HT2C.

Another data set addresses serotonin receptor 5HT2B (Homo sapiens, UniProt P41595). The data set can be described thus: Off-target interaction determined by the PDSP. The format is binding. Conditions: read-out: Off-target, receptor (h, unless noted) (Ki, μM): 5HT2B.
Data set [9] deals with dopamine transporter (DAT) (Homo sapiens, UniProt Q01959). Kind of data set: Off-target interaction determined by the PDSP. The format is binding. As to conditions: read-out: Off-target, receptor (h, unless noted) (Ki, μM): DAT.
Chain of dopamine transporter (DAT) (Q01959 whole entry): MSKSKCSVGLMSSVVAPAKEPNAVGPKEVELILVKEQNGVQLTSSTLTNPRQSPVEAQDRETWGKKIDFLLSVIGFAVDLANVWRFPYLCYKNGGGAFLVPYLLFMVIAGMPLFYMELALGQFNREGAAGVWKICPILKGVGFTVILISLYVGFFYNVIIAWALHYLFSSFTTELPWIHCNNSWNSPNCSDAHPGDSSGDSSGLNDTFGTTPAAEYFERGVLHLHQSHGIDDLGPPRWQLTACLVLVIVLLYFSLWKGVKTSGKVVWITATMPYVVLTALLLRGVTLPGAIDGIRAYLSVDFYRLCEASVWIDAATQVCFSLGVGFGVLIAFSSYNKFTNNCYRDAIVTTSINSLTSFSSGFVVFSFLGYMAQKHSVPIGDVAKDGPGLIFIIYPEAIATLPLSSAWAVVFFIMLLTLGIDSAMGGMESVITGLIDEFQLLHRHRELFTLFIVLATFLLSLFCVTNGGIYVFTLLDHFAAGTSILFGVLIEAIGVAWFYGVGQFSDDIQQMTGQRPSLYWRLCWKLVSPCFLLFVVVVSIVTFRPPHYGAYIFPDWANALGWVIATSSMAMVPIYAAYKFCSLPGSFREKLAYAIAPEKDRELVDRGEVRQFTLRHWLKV

T5 sequence (P29274 whole entry): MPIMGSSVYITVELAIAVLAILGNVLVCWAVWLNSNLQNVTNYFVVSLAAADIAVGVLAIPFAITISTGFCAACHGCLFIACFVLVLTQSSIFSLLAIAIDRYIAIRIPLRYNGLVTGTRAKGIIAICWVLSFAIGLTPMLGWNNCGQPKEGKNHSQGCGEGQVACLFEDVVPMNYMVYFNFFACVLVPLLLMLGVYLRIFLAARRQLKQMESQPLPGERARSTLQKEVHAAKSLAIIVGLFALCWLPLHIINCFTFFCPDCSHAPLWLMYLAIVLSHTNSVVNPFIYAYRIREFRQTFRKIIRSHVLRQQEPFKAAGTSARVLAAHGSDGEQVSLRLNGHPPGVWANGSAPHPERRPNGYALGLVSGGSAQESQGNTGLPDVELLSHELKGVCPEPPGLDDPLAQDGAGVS
Chain of serotonin receptor 5HT2B (P41595 whole entry): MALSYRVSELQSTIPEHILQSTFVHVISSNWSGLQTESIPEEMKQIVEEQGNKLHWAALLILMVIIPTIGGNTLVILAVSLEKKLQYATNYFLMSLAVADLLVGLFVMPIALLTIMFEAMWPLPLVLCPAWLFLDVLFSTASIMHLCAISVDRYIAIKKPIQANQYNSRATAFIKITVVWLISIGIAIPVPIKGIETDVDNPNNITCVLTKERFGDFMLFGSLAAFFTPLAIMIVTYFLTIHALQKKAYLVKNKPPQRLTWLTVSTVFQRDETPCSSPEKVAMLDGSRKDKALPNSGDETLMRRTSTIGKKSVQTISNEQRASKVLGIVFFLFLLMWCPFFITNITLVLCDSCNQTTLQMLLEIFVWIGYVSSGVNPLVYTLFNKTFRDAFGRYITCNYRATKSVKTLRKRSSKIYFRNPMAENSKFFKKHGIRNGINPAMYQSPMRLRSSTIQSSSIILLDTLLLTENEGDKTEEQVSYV

As to `OC[C@H]1O[C@@H](n2cnc3c(NC(C4CCC4)C4CCC4)ncnc32)[C@H](O)C1O` (stereo in doubt) [Compound 9, (2R,3R,4R,5R)-2-(6-((Dicyclobutylmethyl)amino)-9H-purin-9-yl)-5-(hydroxymethyl)tetrahydrofuran-3,4-diol], the Ki at hA3AR is 10600 nM. Moreover, the Emax at 10 µM at mA3AR [1] was 70 ± 9%. The ARs causing hypothermia entry in the data set with wild-type C57BL/6J mice [2] (3 mg/kg ip, WT and AR-KO mice (FIG. 2)) is given as “A1AR selective”. The “Tb (° C.)” value with wild-type C57BL/6J mice [2] (3 mg/kg ip) was 33.0 ± 0.7 °C. For the same compound, in the data set with wild-type C57BL/6J mice [3] (3 mg/kg ip), the “Activity (counts)” value is on record as 6.6 ± 2.3 counts. Also, the “human, % free” value in [4] was 6.05 ± 1.60%. Moreover, the “mouse, % free” value in data set [5] is recorded as 20.6 ± 1.2%. Also, in [6], the “rat, % free” value worked out at 14.6 ± 0.01%.

Consider `CNC(=O)[C@H]1O[C@@H](n2cnc3c(N)ncnc32)[C@H](O)[C@@H]1O` [Compound 15, reference compound], for which the Ki is 36.7 nM at hA1AR, 84 nM at rA1AR, 466 ± 95 nM on hA2AAR and 24.4 nM on hA3AR. Further, the “Off-target, receptor (h, unless noted)” value in data set [7] was “none”.

In the case of `CCNC(=O)[C@H]1O[C@@H](n2cnc3c(N)ncnc32)[C@H](O)[C@@H]1O` [Compound 16, reference compound], the “Off-target, receptor (h, unless noted)” value in data set [7] is reported as “none”.

In the case of `Nc1nc(Cl)nc2c1ncn2[C@H]1[C@H](O)[C@H](O)[C@]2(CO)C[C@H]12` [Compound 21], the Ki on rA1AR was 273 nM. Besides, in data set [7], the “Off-target, receptor (h, unless noted)” value is “none”.

For the compound `O[C@H]1[C@H](n2cnc3c(NC(C4CCC4)C4CCC4)nc(Cl)nc32)[C@H]2C[C@@]2(CSc2ccccc2F)[C@H]1O` [Compound 28, (1S,2R,3S,4R,5S)-4-(2-Chloro-6-((dicyclobutylmethyl)amino)-9H-purin-9-yl)-1-(((2-fluorophenyl)thio)methyl)bicyclo[3.1.0]hexane-2,3-diol], the inhibition at 10 µM was 45 ± 4% at hA1AR, 22 ± 5% on hA2AAR and 20% on mA2AAR. The Ki is 2490 nM at mA1AR; 9750 ± 4030 nM on hA3AR; 7440 nM at mA3AR [8]; 0.583 µM at sigma receptor σ2; 1.46 µM at serotonin receptor 5HT2C; 0.334 µM on serotonin receptor 5HT2B.

Consider `OC[C@@]12C[C@@H]1[C@@H](n1cnc3c(N[C@H]4C[C@H]5CC[C@@H]4C5)nc(Cl)cc31)[C@H](O)[C@@H]2O` [Compound 30, (1R,2R,3S,4R,5S)-4-(4-(((1R,2S,4S)-Bicyclo[2.2.1]heptan-2-yl)amino)-6-chloro-1H-imidazo[4,5-c]pyridin-1-yl)-1-(hydroxymethyl)bicyclo[3.1.0]hexane-2,3-diol], for which the values for the Ki at hA1AR and at hA3AR were 240 ± 19 nM and 145 ± 74 nM, respectively. In addition, the inhibition at 10 µM at hA2AAR amounted to 29 ± 13%. Further, in data set [7], the “Off-target, receptor (h, unless noted)” value was “none”.

On to `O=C(NC1CC1)[C@@]12C[C@@H]1[C@@H](n1cnc3c(N[C@H]4C[C@H]5CC[C@@H]4C5)nc(Cl)nc31)[C@H](O)[C@@H]2O` [Compound 36, (1S,2R,3S,4R,5S)-4-(6-(((1R,2S,4S)-bicyclo[2.2.1]heptan-2-yl)amino)-2-chloro-9H-purin-9-yl)-N-cyclopropyl-2,3-dihydroxybicyclo[3.1.0]hexane-1-carboxamide], for which the Ki on hA1AR is 1.22 ± 0.05 nM; on mA1AR it was 0.45 nM; on hA2AAR, 520 ± 119 nM; on mA2AAR ((m), values without % sign (Ki)) it was 2650 nM; on hA3AR, 59 ± 17.8 nM; at mA3AR [8], 29.5 nM. For the same compound, the Ki at serotonin receptor 5HT2B turned out to be 1.57 µM.

With `NC(=O)c1ncn([C@H]2[C@H](O)[C@H](O)[C@]3(CO)C[C@H]23)n1` [Compound 40, 1-((1S,2R,3S,4R,5R)-3,4-Dihydroxy-5-(hydroxymethyl)bicyclo[3.1.0]hexan-2-yl)-1H-1,2,4-triazole-3-carboxamide], the Ki on hA1AR is 495 ± 35 nM; on mA1AR it was 25.2 ± 2.8 nM; in data set [9] it was 6.61 µM; at sigma receptor σ2, 2.09 µM; at serotonin receptor 5HT2C it was 2.35 µM; on serotonin receptor 5HT2B, 1.91 µM. Besides, the selectivity ratio on mA1AR came out at 400. The inhibition at 10 µM on hA2AAR was 11 ± 3%; at hA3AR it was 41 ± 6%; on mA3AR [8] (read-out: A3AR % inhibition or Ki), 47 ± 2%. Moreover, the maximal response (Emax) at 10 µM on mA3AR [1] turned out to be 31 ± 3%. Besides, the “Tb (° C.)” value with wild-type C57BL/6J mice [2] (10 mg/kg ip) was determined as 35.7 ± 0.7 °C. Also, the “Activity (counts)” value in the data set with wild-type C57BL/6J mice [3] (10 mg/kg ip) was found to be 19.1 ± 5.3 counts. Besides, the “human, % free” value in data set [4] is above 80%. Further, the “mouse, % free” value in data set [5] was above 80%. Also, the “rat, % free” value in data set [6] is listed as above 80%.
